Experimental data from patent US12570655B2, “Cysteine covalent modifiers of AKT1 and uses thereof” (Terremoto Biosciences, Inc., priority 2023, dated 2026).
Like-named read-outs stand apart in the source and are kept apart here.

Legend:
Type in all cases: cell-based
AKT2 = biological target: T1, AKT2 (Homo sapiens, UniProt P31751); assay: Live cell AKT2 target engagement by NanoBRET competitive probe displacement; details: HEK293 cells transfected with kinase-NanoLuciferase fusion, 2 h at 37° C.
T1 construct: expressed in transfected cells; host or cells: HEK293
T1 sequence (P31751 whole entry, the tested form may be a part): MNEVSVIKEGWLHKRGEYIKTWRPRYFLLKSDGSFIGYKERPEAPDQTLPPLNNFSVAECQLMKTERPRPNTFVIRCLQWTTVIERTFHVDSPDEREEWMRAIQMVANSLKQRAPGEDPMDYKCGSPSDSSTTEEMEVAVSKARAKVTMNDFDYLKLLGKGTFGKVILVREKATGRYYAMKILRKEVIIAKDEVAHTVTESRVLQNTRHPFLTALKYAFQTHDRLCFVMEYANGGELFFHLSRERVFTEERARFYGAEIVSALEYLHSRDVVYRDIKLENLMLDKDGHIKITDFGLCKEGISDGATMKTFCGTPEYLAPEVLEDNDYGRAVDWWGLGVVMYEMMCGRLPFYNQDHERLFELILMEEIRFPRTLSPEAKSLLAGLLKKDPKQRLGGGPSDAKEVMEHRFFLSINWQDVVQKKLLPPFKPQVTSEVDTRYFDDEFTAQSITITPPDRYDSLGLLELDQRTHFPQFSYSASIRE
Procedure, shortened: (§1)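 IC50 reflects displacement of a fluorescent ATP-competitive tracer, dosed near its EC50, from kinase–NanoLuciferase fusions in live HEK293 cells. Cells were incubated with compound and tracer for 2 h at 37 °C, then E600/E460 BRET was read.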

[1] = system: LAPC4 prostate cancer cells; assay: Antiproliferative effects in LAPC4 cells (CellTiter Glo); details: LAPC4 cells (AKT1 E17K allele), read-out: LAPC4 proliferation IC50
Procedure, shortened: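 Seed 1,000 cells/well in IMDM/12% FBS/1% P/S; add compound dilutions (DMSO); incubate 72 h; read intracellular ATP with CellTiter Glo; fit luminescence to log(inhibitor)-response Hill curve for IC50.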

AKT1 WT = biological target: T2, AKT1 WT (Homo sapiens, UniProt P31749); assay: Live cell AKT1 WT target engagement by NanoBRET competitive probe displacement; details: HEK293 cells transfected with kinase-NanoLuciferase fusion, 2 h at 37° C.
T2 construct: expressed in transfected cells; host or cells: HEK293
T2 sequence (P31749 whole entry, the tested form may be a part): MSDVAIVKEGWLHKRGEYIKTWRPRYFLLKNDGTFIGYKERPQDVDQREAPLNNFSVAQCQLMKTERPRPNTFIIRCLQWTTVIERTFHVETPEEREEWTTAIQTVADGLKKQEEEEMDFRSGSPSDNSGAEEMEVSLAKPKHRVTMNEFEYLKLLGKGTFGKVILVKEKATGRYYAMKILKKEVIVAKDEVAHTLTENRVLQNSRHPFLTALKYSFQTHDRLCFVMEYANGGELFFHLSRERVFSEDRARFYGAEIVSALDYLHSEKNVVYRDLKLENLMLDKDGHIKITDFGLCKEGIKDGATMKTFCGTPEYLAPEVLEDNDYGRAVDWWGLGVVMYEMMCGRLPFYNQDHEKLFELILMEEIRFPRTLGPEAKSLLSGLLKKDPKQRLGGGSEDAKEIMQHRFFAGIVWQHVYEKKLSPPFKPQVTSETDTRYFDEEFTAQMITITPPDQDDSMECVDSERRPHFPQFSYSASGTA
Procedure, shortened: as §1

AKT1 E17K = biological target: T3, AKT1 E17K (Homo sapiens, UniProt P31749, E17K); assay: Live cell AKT1 E17K target engagement by NanoBRET competitive probe displacement; details: HEK293 cells transfected with kinase-NanoLuciferase fusion, 2 h at 37° C.
T3 construct: expressed in transfected cells; host or cells: HEK293
T3 sequence (P31749 whole entry E17K, the tested form may be a part): as the sequence (P31749 whole entry, the tested form may be a part) above, with E17K counted along it
Procedure, shortened: as §1

SMILES | IC50 (AKT2) | IC50 ([1]; 72 h) | IC50 (AKT1 WT) | IC50 (AKT1 E17K) | IC50 ([1]; Homo sapiens, LAPC4, 72 h)
C=CC(=O)N1CCC(N[C@@H]2c3ccc(-n4c(-c5cccnc5N)nc5ccc(-n6ccc(F)n6)nc54)cc3CC2F)C[C@@H]1C (single isomer, unassigned) [Example 272, 1-((2S,4*)-4-(((1R,2*)-5-(2-(2-aminopyridin-3-yl)-5-(3-fluoro-1H-pyrazol-1-yl)-3H-imidazo[4,5-b]pyridin-3-yl)-2-fluoro-2,3-dihydro-1H-inden-1-yl)amino)-2-methylpiperidin-1-yl)prop-2-en-1-one] | 92.1 nM | 351 nM | 1240 nM | 23.6 nM | –
C=CC(=O)N1CCC(N[C@@H]2c3ccc(-n4c(-c5cccnc5N)nc5ccc(-n6ccc(F)n6)nc54)cc3CC2F)C[C@H]1C (single isomer, unassigned) [Example 274, 1-((2R,4*)-4-(((1R,2*)-5-(2-(2-aminopyridin-3-yl)-5-(3-fluoro-1H-pyrazol-1-yl)-3H-imidazo[4,5-b]pyridin-3-yl)-2-fluoro-2,3-dihydro-1H-inden-1-yl)amino)-2-methylpiperidin-1-yl)prop-2-en-1-one] | 94.4 nM | 323 nM | 696 nM | 18.8 nM | –
C=CC(=O)N1CCC(N[C@@H]2c3ccc(-n4c(-c5cccnc5N)nc5ccc(-n6ccc(F)n6)nc54)cc3CC2F)C[C@H]1C (single isomer, unassigned) [Example 277, 1-((2R,4*)-4-(((1R,2*)-5-(2-(2-aminopyridin-3-yl)-5-(3-fluoro-1H-pyrazol-1-yl)-3H-imidazo[4,5-b]pyridin-3-yl)-2-fluoro-2,3-dihydro-1H-inden-1-yl)amino)-2-methylpiperidin-1-yl)prop-2-en-1-one] | 54.6 nM | 138 nM | 821 nM | 23.3 nM | –
C=CC(=O)N1CCC(N[C@@H]2c3ccc(-n4c(-c5cccnc5N)nc5ccc(-n6ccc(OC)n6)nc54)cc3CC2F)CC1 (single isomer, unassigned) [Example 286, 1-(4-(((1R,2*)-5-(2-(2-aminopyridin-3-yl)-5-(3-methoxy-1H-pyrazol-1-yl)-3H-imidazo[4,5-b]pyridin-3-yl)-2-fluoro-2,3-dihydro-1H-inden-1-yl)amino)piperidin-1-yl)prop-2-en-1-one] | 36.3 nM | – | 273 nM | 10.7 nM | 124 nM
C=CC(=O)N1CCC(N[C@@H]2c3ccc(-n4c(-c5cccnc5N)nc5ccc(-n6cccn6)nc54)cc3CC2F)C(C)C1 (single isomer, unassigned) [Example 288, 1-[(3*,4*)-4-{[(1R,2*)-5-[2-(2-aminopyridin-3-yl)-5-(pyrazol-1-yl)imidazo[4,5-b]pyridin-3-yl]-2-fluoro-2,3-dihydro-1H-inden-1-yl]amino}-3-methylpiperidin-1-yl]prop-2-en-1-one] | 212 nM | 1530 nM | 2090 nM | 38 nM | –
C=CC(=O)N1CCC(N[C@@H]2c3ccc(-n4c(-c5cccnc5N)nc5ccc(-n6ccc(C7CC7)n6)nc54)cc3CC2F)CC1 (single isomer, unassigned) [Example 297, 1-(4-(((1R,2*)-5-(2-(2-aminopyridin-3-yl)-5-(3-cyclopropyl-1H-pyrazol-1-yl)-3H-imidazo[4,5-b]pyridin-3-yl)-2-fluoro-2,3-dihydro-1H-inden-1-yl)amino)piperidin-1-yl)prop-2-en-1-one] | 108 nM | – | 588 nM | 23.8 nM | 509 nM
C=CC(=O)N1CCC(N[C@@H]2c3ccc(-n4c(-c5ccccc5F)nc5ccc(-n6cccn6)nc54)cc3CC2F)CC1 (single isomer, unassigned) [Example 300, 1-(4-(((1R,2*)-2-fluoro-5-(2-(2-fluorophenyl)-5-(1H-pyrazol-1-yl)-3H-imidazo[4,5-b]pyridin-3-yl)-2,3-dihydro-1H-inden-1-yl)amino)piperidin-1-yl)prop-2-en-1-one] | 34.9 nM | 389 nM | 2330 nM | 9.07 nM | –

Continued by falling IC50 (AKT2), values first:

IC50 (AKT2) | IC50 ([1]; 72 h) | IC50 (AKT1 WT) | IC50 (AKT1 E17K) | IC50 ([1]; Homo sapiens, LAPC4, 72 h) | SMILES
358 nM | 1110 nM | 1580 nM | 68.3 nM | – | C=CC(=O)N1CCC(N[C@@H]2c3ccc(-n4c(-c5cccnc5N)nc5ccc(-n6cccn6)nc54)cc3CC2F)C(C)C1 (single isomer, unassigned) [Example 291, 1-[(3*,4*)-4-{[(1R,2*)-5-[2-(2-aminopyridin-3-yl)-5-(pyrazol-1-yl)imidazo[4,5-b]pyridin-3-yl]-2-fluoro-2,3-dihydro-1H-inden-1-yl]amino}-3-methylpiperidin-1-yl]prop-2-en-1-one]
145 nM | 682 nM | 799 nM | 19.6 nM | – | C=CC(=O)N1CCC(N[C@@H]2c3ccc(-n4c(-c5cccnc5N)nc5ccc(-n6cccn6)nc54)cc3CC2F)C(C)C1 (single isomer, unassigned) [Example 289, 1-[(3*,4*)-4-{[(1R,2*)-5-[2-(2-aminopyridin-3-yl)-5-(pyrazol-1-yl)imidazo[4,5-b]pyridin-3-yl]-2-fluoro-2,3-dihydro-1H-inden-1-yl]amino}-3-methylpiperidin-1-yl]prop-2-en-1-one]
122 nM | 455 nM | 666 nM | 19.4 nM | – | C=CC(=O)N1CCC(N[C@@H]2c3ccc(-n4c(-c5cccnc5N)nc5ccc(-n6cccn6)nc54)cc3CC2F)C(C)C1 (single isomer, unassigned) [Example 290, 1-[(3*,4*)-4-{[(1R,2*)-5-[2-(2-aminopyridin-3-yl)-5-(pyrazol-1-yl)imidazo[4,5-b]pyridin-3-yl]-2-fluoro-2,3-dihydro-1H-inden-1-yl]amino}-3-methylpiperidin-1-yl]prop-2-en-1-one]
106 nM | 378 nM | 1350 nM | 30.7 nM | – | C=CC(=O)N1CCC(N[C@@H]2c3ccc(-n4c(-c5cccnc5N)nc5ccc(-n6ccc(F)n6)nc54)cc3CC2F)C[C@H]1C (single isomer, unassigned) [Example 276, 1-((2R,4*)-4-(((1R,2*)-5-(2-(2-aminopyridin-3-yl)-5-(3-fluoro-1H-pyrazol-1-yl)-3H-imidazo[4,5-b]pyridin-3-yl)-2-fluoro-2,3-dihydro-1H-inden-1-yl)amino)-2-methylpiperidin-1-yl)prop-2-en-1-one]
81.9 nM | 326 nM | 2620 nM | 84 nM | – | C=CC(=O)N1CCC(N[C@@H]2c3ccc(-n4c(-c5cccnc5N)nc5ccc(-n6ccc(F)n6)nc54)cc3CC2F)C[C@H]1C (single isomer, unassigned) [Example 275, 1-((2R,4*)-4-(((1R,2*)-5-(2-(2-aminopyridin-3-yl)-5-(3-fluoro-1H-pyrazol-1-yl)-3H-imidazo[4,5-b]pyridin-3-yl)-2-fluoro-2,3-dihydro-1H-inden-1-yl)amino)-2-methylpiperidin-1-yl)prop-2-en-1-one]
57.3 nM | 314 nM | 294 nM | 14.2 nM | – | C=CC(=O)N1CCC(N[C@@H]2c3ccc(-n4c(-c5cccnc5N)nc5ccc(-n6ccc(C7CC7)n6)nc54)cc3CC2F)CC1 (single isomer, unassigned) [Example 298, 1-(4-(((1R,2*)-5-(2-(2-aminopyridin-3-yl)-5-(3-cyclopropyl-1H-pyrazol-1-yl)-3H-imidazo[4,5-b]pyridin-3-yl)-2-fluoro-2,3-dihydro-1H-inden-1-yl)amino)piperidin-1-yl)prop-2-en-1-one]
41.8 nM | 110 nM | 227 nM | 7.68 nM | – | C=CC(=O)N1CCC(N[C@@H]2c3ccc(-n4c(-c5cccnc5N)nc5ccc(-n6ccc(OC)n6)nc54)cc3CC2F)CC1 (single isomer, unassigned) [Example 287, 1-(4-(((1R,2*)-5-(2-(2-aminopyridin-3-yl)-5-(3-methoxy-1H-pyrazol-1-yl)-3H-imidazo[4,5-b]pyridin-3-yl)-2-fluoro-2,3-dihydro-1H-inden-1-yl)amino)piperidin-1-yl)prop-2-en-1-one]
33.3 nM | 129 nM | 82.1 nM | 16.9 nM | – | C=CC(=O)N1CCC(N[C@@H]2c3ccc(-n4c(-c5cccnc5N)nc5ccc(-n6cccn6)nc54)cc3CC2F)CC1C(F)F (single isomer, unassigned) [Example 302, 1-((2*,4*)-4-(((1R,2*)-5-(2-(2-aminopyridin-3-yl)-5-(1H-pyrazol-1-yl)-3H-imidazo[4,5-b]pyridin-3-yl)-2-fluoro-2,3-dihydro-1H-inden-1-yl)amino)-2-(difluoromethyl)piperidin-1-yl)prop-2-en-1-one]
27.9 nM | 134 nM | 157 nM | 11.5 nM | – | C=CC(=O)N1CCC(N[C@@H]2c3ccc(-n4c(-c5cccnc5N)nc5ccc(-n6ccc(F)n6)nc54)cc3CC2F)C[C@@H]1C (single isomer, unassigned) [Example 273, 1-((2S,4*)-4-(((1R,2*)-5-(2-(2-aminopyridin-3-yl)-5-(3-fluoro-1H-pyrazol-1-yl)-3H-imidazo[4,5-b]pyridin-3-yl)-2-fluoro-2,3-dihydro-1H-inden-1-yl)amino)-2-methylpiperidin-1-yl)prop-2-en-1-one]
